pEC50, pIC50: −log10 of the molar value. “And” between values parts separate entries of the source, which are not always exact repeats. Identical values can stand only once. The source made the active and inactive calls.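 The calls were made as follows: active = compounds giving half or more protection of infected cells from virus-caused growth loss, again on retest; inactive = the rest.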 Where a SMILES comes first, the peptide text is derived from it. The star is where a group is joined. Boc = CC(C)(C)OC(=O)*; OtBu = CC(C)(C)O*
Test system: CEM cells HIV-1 protection, formazan growth assay
Experiment: NCI AIDS Antiviral Assay
Settings: for pIC50: measured here: growth of uninfected CEM cells
Method in brief: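 Soluble formazan readout of cell growth; CEM cells ± HIV-1; 5 drug concs. ≥50% protection → retest; ≥50% again = moderately active; reproducible 100% = confirmed active.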

Compound	pEC50	pIC50	outcome
CCOC(=O)c1nc2ccccc2nc1Oc1cc(OC)c(OC)c(OC)c1	< 4.00	< 4.00	
O=c1c(Cl)nsnc1Cl	< 3.31	4.55	
O=C(/C=C/c1ccc(O)c(O)c1)NC(CO)C(=O)O (stereo not drawn)	< 3.70	4.54	
OCC1OC(n2cnc(C3=NCC(O)CN3)n2)C(O)C1O (stereo not drawn)			inactive
CN(C)CCCNC(=O)c1cc(NC(=O)c2cc(NC(=O)[C@H]3C[C@@H]3C(=O)Nc3cc(C(=O)Nc4cc(C(=O)NCCCN(C)C)n(C)c4)n(C)c3)cn2C)cn1C			inactive
COCCCC(NC(=O)C(CC(C)C)NC(=O)OCc1ccc(OC)cc1)C(=O)OC (stereo not drawn)	< 3.70	4.48	
Cn1c(CCN=C(N)CSS(=O)(=O)O)nc2ccccc21	< 3.70	3.76	
CC(C)CC(NC(=O)C(CCC(=O)O)NC(=O)CNC(=O)CNC(=O)C(CO)NC(=O)C(CC(C)C)NC(=O)C(NC(=O)C(CO)NC(=O)C(C)NC(=O)C(CCCNC(=N)N)NC(=O)C(C)NC(=O)CN)C(C)C)C(=O)NC(CC(=O)O)C(=O)NC(CCCNC(=N)N)C(=O)NC(Cc1c[nH]c2ccccc12)C(=O)NC(Cc1ccc(O)cc1)C(N)=O (stereo not drawn) (H-GARASVLSGGELDRWY-NH2; configuration not given here)	< 3.84	< 3.84	
Cc1ccc(-c2n[nH]c(=O)n2N2C(=O)C=CC2=O)cc1	4.31	3.30	
CCc1c(OC)oc(CCCCCCCCCC(C)C(C)=O)c(C)c1=O (stereo not drawn)	< 4.60	7.43	
Oc1ccc(C2(c3ccc(O)cc3)CCCC2)cc1	< 3.70	4.51	
C=C(C)[C@@H]1CC[C@]2(C)CC[C@]3(C)[C@H](CC[C@@H]4[C@@]5(C)CC[C@H](O)C(C)(C)[C@@H]5CC[C@]43C)[C@@H]12	< 4.00	4.29	
Cc1ccnc(NC(=O)Nc2ccccc2Cl)c1	< 3.70	< 3.70	
Clc1ccc(NN(c2ccccc2)c2ccc(Cl)cc2)cc1	< 3.70	3.94	
BrCc1ccc(CBr)c2c1-c1c(CBr)ccc3ccc(CBr)c-2c13	< 3.70	4.64	
COC1(OC)N=C(N)C2(C#N)/C(=N/N(C)C)CC(C)C12C#N (stereo not drawn)	< 3.70	< 3.70	
C=C1C(=O)O[C@@H]2C[C@@H](C)[C@@H]3C=CC(=O)[C@@]3(C)[C@@H](OC(=O)CCCC(=O)O[C@H]3[C@@H]4C(=C)C(=O)O[C@@H]4C[C@@H](C)[C@@H]4C=CC(=O)[C@]43C)[C@H]12	< 5.24	6.39	
Cc1cccc(Nc2nc(N)nc(N)c2N=O)c1	< 3.70	4.68	
COc1nc2c(nnn2C2OCC(O)C(O)C2O)c(=O)n1C (stereo not drawn)			inactive
CCOC(=O)c1c(-c2ccc(OC)cc2)c(C#N)c(=S)n(C2OC(CO)C(O)C(O)C2O)c1-c1ccccc1 (stereo not drawn)	< 3.70	4.46	
C[P+](Cc1ccccc1)(c1ccccc1)c1ccccc1	7.20	4.84	

Compound	pEC50	pIC50	outcome
CCN(CC)CCC(=O)c1ccc(OC)cc1	< 3.04	4.71	
O=C1NC2C3CC(OCc4ccccc4)(OCc4ccccc4)C2OC3O1 (stereo not drawn)	< 4.01	< 4.01	
NC(CSS(=O)(=O)O)=NCC1CC2CCC1C2 (stereo not drawn)	< 3.70	4.04	
Cc1ccc2c(c1)P(=O)(O)c1cc(C)ccc1S2(=O)=O	< 3.70	< 3.70	
O=C(O)C12CC3CC(CC(F)(C3)C1)C2	< 3.04	< 3.04	
COc1cccc(C2SC(N)=Nc3c2c(C)nn3C(=O)c2ccccc2O)c1 (stereo not drawn)	< 5.70	6.77	
O=c1[nH]c(-c2ccccc2)nc2ccc(Cl)cc12			inactive
CCOC(=O)C1C(=O)CC(C)(O)C(C(=O)OCC)C1c1ccc(OC)cc1 (stereo not drawn)	< 3.70	< 3.70	
COC1OC(COC(C)=O)C(OC(C)=O)C(OC(C)=O)C1NC(=O)N(CCCl)N=O (stereo not drawn)	< 3.54	4.04 and < 3.68	
Cc1c(/C=N/NC(=S)Nc2ccc(Cl)cc2)c(=O)n(-c2ccccc2)n1C	< 3.70	< 3.70	
CC(C)(C)OC(=O)CC(NC(=O)OC(C)(C)C)C(=O)NC(Cc1ccccc1)C(N)=O (stereo not drawn) (Boc-Asp(OtBu)-Phe-NH2; configuration not given here)	3.79	< 3.70	
COC(=O)[C@H]1[C@H]2C[C@@H]3c4[nH]c5cccc(OC)c5c4CCN3C[C@H]2CC[C@H]1O	< 3.70	< 3.70	
CCOC(=O)/C(O)=C(\C=N\C(=S)Nc1ccc(Cl)c(Cl)c1)C(=O)OCC	< 3.70	< 3.70	
CCOC(=O)[C@@H]1CCN2CN(c3ccc(OC)cc3)N=C(c3ccccc3)[C@@]12c1ccccc1	< 3.70	4.74	
O=C(CN1CCCCC1)c1ccc2c(c1)Sc1ccccc1O2	< 3.70	5.46	
Cc1c2ccnc(C#N)c2c(C)c2c1[nH]c1ccccc12			inactive
O=C1C(c2ccccc2)=C2C(=C1c1ccccc1)c1cccc3cccc2c13			inactive
O=c1[nH]c(=O)n(COC(CO)CO)cc1-c1ccccc1	< 3.70	< 3.70	
O=[N+]([O-])c1ccc(Sc2c3ccccc3nc3ccccc23)cc1	< 5.36	< 5.36	
CCN(CC)CCNc1cccc2oc3ccc(OS(=O)(=O)c4ccc(C)cc4)cc3c(=O)c12	< 4.82	5.20	
C/C(=N\N(C)C)c1sc(-n2nc(-c3ccccc3)cc2-c2ccccc2)nc1C	< 4.33	< 4.33	

Compound	pEC50	pIC50	outcome
[O-][N+]1=NC(c2ccccc2)=C1c1ccccc1	< 4.30	< 4.30	
CCOC(=O)C(C(=O)OCC)=c1sc(=C(C(=O)OCC)C(=O)OCC)s1			inactive
[N-]=[N+]=CC(=O)OCCCCl	< 3.70	< 3.70	
CC(C)(SSC(C)(C)C(N)C(=O)O)C(N)C(=O)O (stereo not drawn)	< 3.37	< 3.37	
Oc1ccc2ccccc2c1CN1CCOCC1	3.88	3.73	
Cc1cc(N=Nc2c(N)c(C)cc(N=Nc3ccc(C(N)=O)cc3)c2N)ccc1N=Nc1cc(C(=O)O)c(O)c(S(=O)(=O)O)c1	5.05	< 3.70	
COc1cc(CNc2ccc(SC)cc2)cc(OC)c1OC	< 4.00	5.33 and 5.32	
Cc1ccc(/C=C/C(=O)C(C)C)cc1	< 3.70	4.15	
CC1CC(=O)Nc2ccc(N=NN(C)C)cc2N1C=O (stereo not drawn)	< 3.70	< 3.70	
CC(=O)C1=C(C)N2C(=NC3=C(CCc4ccccc43)C2c2cccc(Br)c2)S1 (stereo not drawn)	< 3.70	4.09	
Cn1ccnc1C(c1nccn1C)C(C)(C)[N+](=O)[O-]	< 3.47	< 3.47	
Cc1noc(NS(=O)(=O)c2ccc(Nc3nc(CC(=O)Nc4ccccc4)cs3)cc2)c1C	< 3.70	4.55	
COC1(OC)c2ccccc2C2(O)c3ccccc3C(=O)C12 (stereo not drawn)			inactive
[Cl-].[Cl-].[Pt+4].[S-]c1ncccn1.[S-]c1ncccn1	< 4.00	6.45	
CCC12CN(C(=O)OC)C3C(Br)C1CCC(=O)C32 (stereo not drawn)	< 3.70	3.75	
CCOC1NC(/N=C/c2ccc(OC)cc2)=C(C#N)C1C#N (stereo not drawn)	< 3.70	4.61	
O=C(/C=C/c1cccc(Br)c1)c1ccccc1	< 4.88	< 4.88	
COC(=O)C([C@H](NC1(c2ccccc2)c2ccccc2-c2ccccc21)C(=O)OC)N(NC(=O)OCc1ccccc1)C(=O)OCc1ccccc1 (mixture of isomers)	< 3.70	3.96	
COC(=O)C(=O)C(C(=O)C(=O)Nc1ccc(F)cc1)c1nc2ccc([N+](=O)[O-])cc2[nH]c1=O (stereo not drawn)	< 3.26	3.61	
O=C(O)c1cc2ccccc2c(S(=O)(=O)O)c1O	< 3.70	< 3.70	
COc1cc([N+](=O)[O-])c(S(=O)(=O)O)cc1N	< 3.00	< 3.00	

Compound	pEC50	pIC50	outcome
CN(C)/N=N/c1nc[nH]c1C(N)=O	< 4.13	5.31	
CC1CCCc2c(CC3CC(=O)NC(=O)C3)nc(N)nc21 (stereo not drawn)	< 3.70	< 3.70	
O=C1CC2(c3ccccc3)ON=C(c3ccccc3)N2c2ccccc2N1 (stereo not drawn)	< 3.70	4.07	
COc1ccc(-c2c(C)c(C(=O)O)nc(-c3ccc4c(O)c(OC)c5c(c4n3)=NC(C)(C)N=5)c2N)c(O)c1OC	< 3.34	5.62	
CCn1cc(C(=O)O)c(=O)c2cc(F)c(-n3cccc3)cc21			inactive
CC1=Nc2ccccc2SC(c2c(Cl)cccc2Cl)C1 (stereo not drawn)	< 4.65	5.34	
COc1ccc(NCn2nc(CCCCCCCCc3nn(CNc4ccc(OC)cc4)c(=S)o3)oc2=S)cc1	< 3.70	3.80	
Cc1nc2nc3n(c(=O)c2nc1C)CCS3			inactive
O=C1CN(C2CCCCC2)CC(=O)N2C(c3ccccc3)CCCN12 (stereo not drawn)	< 3.70	< 3.70	
CC(C)c1ccc(/C=C/c2cc(C(=O)NNC(=O)NC3CCCCC3)nc(=S)[nH]2)cc1	< 5.21	< 5.21	
Cn1nc(-c2ccccc2)c(C(=O)/C=C/c2ccccc2)c(N2CCCCC2)c1=O	< 4.62	< 4.62	
O=C(Cc1ccc([N+](=O)[O-])c([N+](=O)[O-])c1CC(=O)C(=O)Nc1cc(Cl)ccc1Cl)C(=O)Nc1cc(Cl)ccc1Cl	< 4.32	5.03	
CCCCCCCCCCCCCCCC(=O)Nc1ccn(C2CCC(COP(=O)(O)O)O2)c(=O)n1 (stereo not drawn)	5.80	4.30	
Nc1ccn(C2CC(CO)C(CO)C2)c(=O)n1 (stereo not drawn)	< 3.68	< 3.68	
Cc1cn(COCCSCc2ccccc2)c(=O)[nH]c1=O	4.23	< 3.70	
CC1=C(C#N)C2(C(=O)Nc3ccccc32)C(C#N)=C(C)N1	< 3.79	< 3.79	
O=C1/C(=C\c2ccccc2)Oc2ccc(Cl)cc21	< 4.84	< 4.84	
C/C(C/C(C)=N\N=C(N)N)=N/N=C(N)N	< 3.70	< 3.70	
CCOC(=O)Cc1cc(=O)oc2cc(O)ccc12	< 3.70	3.78	
[O-]c1nn(C2OC(CO)C(O)C2O)c2cccc[n+]12 (stereo not drawn)	< 3.03	< 3.03	
CCC(C)C(NC(=O)c1ccccc1SC(=O)OCCCCCl)C(N)=O (stereo not drawn)	5.56	< 3.70	

Reference: PubChem BioAssay AID179 (DTP/NCI, 2004)
